# According to PubChem BioAssay (NCI):
# Values joined by “and” are separate entries in the source; they are usually repeats but may differ in a detail not shown here. Identical values can stand only once.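 Method: 48-hour compound exposure of cells in 96-well plates, five concentrations, linear interpolation of endpoints. At the GI50, growth is halved. The concentration for full growth arrest is given as TGI.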
# Legend:
# Experiment in all cases: NCI anticancer screen, dose series, 48 h
# RXF 393 renal = tested on: RXF 393 renal
# OVCAR-8 ovarian = tested on: OVCAR-8 ovarian
# DU-145 prostate = tested on: DU-145 prostate
# MOLT-4 leukemia = tested on: MOLT-4 leukemia
# UACC-257 melanoma = tested on: UACC-257 melanoma
# HCT-116 colon = tested on: HCT-116 colon
# KM12 colon = tested on: KM12 colon
# A498 renal = tested on: A498 renal
# CCRF-CEM leukemia = tested on: CCRF-CEM leukemia
# OVCAR-3 ovarian = tested on: OVCAR-3 ovarian
# SR leukemia = tested on: SR leukemia
# NCI-H23 lung = tested on: NCI-H23 lung
Structure (SMILES),TGI (RXF 393 renal) [µM],TGI (OVCAR-8 ovarian),TGI (DU-145 prostate),TGI (MOLT-4 leukemia) [µM],TGI (UACC-257 melanoma),TGI (HCT-116 colon),TGI (KM12 colon),TGI (A498 renal) [µM],TGI (CCRF-CEM leukemia) [µM],TGI (OVCAR-3 ovarian),TGI (SR leukemia) [µM],TGI (NCI-H23 lung),GI50 (MOLT-4 leukemia) [nM],GI50 (UACC-257 melanoma) [nM],GI50 (CCRF-CEM leukemia) [nM],GI50 (OVCAR-3 ovarian) [nM],GI50 (SR leukemia)
Cn1c2ccccc2n2c3nc4ccccc4nc3c(C#N)c12,> 100,> 100 µM,> 100 µM,> 100,> 100 µM,> 100 µM,> 100 µM,9.72,> 100,> 100 µM,> 100,> 100 µM,,,,,
O=C1CC(c2cccc(Cl)c2)n2cccc21 (centres undefined),> 100,> 100 µM,> 100 µM,> 100,> 100 µM,> 100 µM,> 100 µM,> 100,> 100,> 100 µM,> 100,> 100 µM,,,,,
Fc1cccc2nc(-c3ccccc3)cc(OCc3ccccc3)c12,> 100,> 100 µM,> 100 µM,> 100,> 100 µM,> 100 µM,> 100 µM,> 100,> 100,> 100 µM,> 100,> 100 µM,,,,,
Cc1nc2ccccc2n1CCc1nc2ccccc2s1,> 100,> 100 µM,> 100 µM,53.6,> 100 µM,> 100 µM,> 100 µM,> 100,> 100,> 100 µM,> 100,> 100 µM,,,,,
CC1=Nn2c(nc3sc4c(c3c2=O)CCCC4)SC1,> 100,> 100 µM,> 100 µM,> 94.6,> 100 µM,> 100 µM,> 100 µM,> 100,> 76.3,> 100 µM,> 100,> 100 µM,,,,,
CC1=C(N2CC2)C(=O)c2nc3n(c2C1=O)CCC3O (centres undefined),0.398,0.688 µM,0.0717 µM,21.1,0.513 µM,1.52 µM,0.699 µM,0.521,13.4,0.763 µM,35.6,0.262 µM,,,,,
COc1ccc(N=C/C=C/Nc2ccc(OC)cc2)cc1,18.5,9.9 µM,32.9 µM,22.9,18.7 µM,11.8 µM,9.55 µM,27.2,> 37.2,3.45 µM,11.2,41.2 µM,,,,,
COC(=O)C(Cc1ccccc1)NC(=O)CNC(=O)CSc1nnc(COc2ccc(Cl)cc2)n1-c1ccccc1 (centres undefined),33.1,27.4 µM,33 µM,> 24.2,28.8 µM,33 µM,35.2 µM,29.4,7.42,30.9 µM,> 20.4,35.6 µM,,,,,
COC(=O)c1c(O)ccc2c1c1c(n2C)C(=O)c2ccccc2C1=O,42,> 100 µM,72.7 µM,22.8,> 100 µM,32.1 µM,> 100 µM,> 100,51.9,> 100 µM,> 100,78.2 µM,,,,,
COC1C(O)=C2C(=O)OC(C)(O)/C=C/C=C\C=C/C=C/C(c3ccccc3)NC(=O)/C=C/C=C/C=C/C=C/C2(C)C1O (centres undefined),0.0425,0.0241 µM and 0.146 µM,0.0769 µM and 0.123 µM,,0.17 µM and 0.31 µM,0.0724 µM and 0.0739 µM,0.117 µM and 0.148 µM,0.0976,,0.218 µM and 0.349 µM,,0.119 µM and 0.129 µM,69.7,83.8,< 1,114,5.3 nM and 26.9 nM
COc1cc2c(cc1OCCCC(=O)Nc1cc(C(=O)Nc3cc(C(=O)NCCCN(C)C)n(C)n3)n(C)n1)N=CC1CCCN1C2=O (centres undefined),33.6,53.2 µM,32.2 µM,18.9,35.2 µM,34 µM,> 100 µM,59.2,29.7,33 µM,26.7,39.1 µM,,,,,
COc1ccc(-c2cn3c(n2)sc2cc(C)ccc23)cc1,35.8,47.2 µM,> 100 µM,> 100,24.2 µM,> 100 µM,> 100 µM,47.4,> 100,> 100 µM,> 100,> 100 µM,,,,,
CN(C)Cc1cc(N=Nc2ccc(Cl)c(Cl)c2)ccc1O,10.7,25.5 µM,17.6 µM,24.4,30.5 µM,29.8 µM,16.5 µM,23.9,20,19.2 µM,28.6,28.1 µM,,,,,
Clc1ccc(-c2nc(-c3ccc(Cl)cc3)[s+]s2)cc1,> 100,> 100 µM,> 100 µM,> 100,> 100 µM,> 100 µM,> 100 µM,> 100,98.6,> 100 µM,94.2,> 100 µM,,,,,
CC1(C)CCOC(=O)C(Cl)CC1Cl (centres undefined),> 100,> 100 µM,> 100 µM,> 100,> 100 µM,> 100 µM,> 100 µM,> 100,> 100,> 100 µM,> 100,> 100 µM,,,,,
COC1CCC(OC2CC(C3(C)CCC4(CC(O)C(C)C(C(C)/C=C(\C)C(=O)C(C)CC(C)C(=O)O)O4)O3)OC3(OC(C4OC(O)(CO)C(C)CC4C)CC3C)C2C)OC1C (centres undefined),0.225,1.87 µM,3.63 µM,0.339,1.52 µM,1.66 µM,1.31 µM,0.336,0.509,2.58 µM,< 0.0134,1.13 µM,,,,,
c1ccc(N=NNNc2ccc(-c3nc4ccccc4[nH]3)cc2)cc1,55.8,> 100 µM,> 100 µM,36.8,> 100 µM,> 100 µM,> 100 µM,> 100,56.1,38.1 µM,> 100,> 100 µM,,,,,
COc1ccc2nc3c([N+](=O)[O-])ccc4c3c(c2c1)NCCN4C,0.878,14.9 µM,6.92 µM,27,10.1 µM,2.88 µM,23.2 µM,3.85,> 100,5.62 µM,> 100,6.39 µM,,,,,
CC(C)n1c(=O)c2nn3c(=O)n(C(C)C)c(=O)c3nn2c1=O,> 100,> 100 µM,> 100 µM,> 100,> 100 µM,> 100 µM,> 100 µM,> 100,> 100,> 100 µM,> 100,> 100 µM,,,,,
COC(=O)CC1C2CC3C(C2=O)C13 (centres undefined),> 100,> 100 µM,> 100 µM,> 100,> 100 µM,> 100 µM,> 100 µM,> 100,> 100,> 100 µM,> 100,> 100 µM,,,,,
COc1cc2[nH]c(-c3ccccc3)cc(=O)c2cc1OC,> 72.7,> 89.4 µM,> 100 µM,> 100,> 100 µM,> 49.7 µM,> 74.9 µM,> 100,> 65.6,> 100 µM,> 48.3,> 84.6 µM,,,,,
